Laboratory results reported in publication PMC10054552, “Phototoxic Potential of Different DNA Intercalators for Skin Cancer Therapy: In Vitro Screening” (International Journal of Molecular Sciences, 2023).
Like-named read-outs stand apart in the source and are kept apart here.

Key:
Assay type in all cases: cell-based, human
WM983b cells = assay: Cytotoxicity (resazurin cell viability) in WM983b cells; settings: for IC50: Homo sapiens, 1.25-320 µM
Source text: (§1) The MET1 SCC cell line (human squamous cell carcinoma) was obtained from Ximbio (London, UK), HaCaT (immortalized human keratinocytes cell line) was obtained from Addexbio (San Diego, CA, USA) and WM983b (human metastatic melanoma cell line) was obtained from Rockland (Pottstown, PA, USA). Cells were maintained in Dulbecco’s Modified Eagle Medium (DMEM) supplemented with 10% (v/v) fetal bovine serum (FBS) for MET1 and HaCaT and 5% (v/v) for WM983b cells, and Pen–Strep (penicillin 100 U/mL and streptomycin 100 µg/mL). Cells were cultivated in an incubator (Sanyo MCO-19AIC-UV) at 37 °C in a 5% CO2 humidified atmosphere.
(§2) First, 96-well plates were seeded with HaCaT and MET1 cells at a density of 20,000 cells/cm² and incubated for 24 h. After that period, the culture medium was replaced by culture medium containing different compounds: MB, AO, GV, QT, CUR, EGCG, PHE, NEO and BIPY. The compounds were diluted in culture medium using a range of concentrations of each compound from 1.25 µM to 320 µM (in quadruplicate). The medium was aspirated from the 96-well plate and replaced by the samples diluted in medium. Cells cultured with complete medium and cells cultured with medium supplemented with 0.2% (v/v) or 10% (v/v) of DMSO were used as negative (NC), solvent (SC) and positive controls (PC), respectively. The plates were incubated for 24 and 48 h, followed by evaluation of cell viability using a colorimetric assay. Cells containing samples were washed with PBS supplemented with calcium and magnesium; then, resazurin solution diluted in DMEM at 0.02 mg/mL was added. The medium containing resazurin was also dispensed in wells without cells, which were used as references. After 3 h of incubation, the absorbance was measured in a microplate reader (ELX800UV, Biotek Instruments) at wavelengths of 570 nm and 600 nm. The corrected absorbance was proportional to cell viability. Propagation of uncertainties was used to calculate the combined standard uncertainty. For the cytotoxicity study using WM983b cells, plates were seeded at a density of 40,000 cells/cm², and cells were treated only with MB and AO.

MET1 cells [1] = assay: Cytotoxicity (resazurin cell viability) in MET1 cells; settings: Homo sapiens, MET-1, MET1 cells, 1.25-320 µM
Source text: as §1, §2

MET1 cells [2] = assay: Intracellular ROS production in MET1 cells (DHE fluorescence); settings: 5 µM
Protocol: MET1 cells were seeded at a density of 20,000 cells/cm² in 24-well plates. After 24 h, cells were treated with MB and AO diluted in culture medium at low concentrations (1.25 µM, 2.5 µM and 5 µM). The medium culture was replaced by the prepared samples. Plates were incubated for 24 h; then, cells were washed with medium, and DMEM without phenol red was added. The plates were submitted to 2.5 J/cm² irradiation under red light at 640 nm for MB and 457 nm blue light for AO. Dihydroethidium (DHE) was used to evaluate ROS production. For this assay, the medium was removed after irradiation, and 20 µM of DHE diluted in medium was added. The plate was incubated for 20 min, washed with medium and incubated 20 min with Hoechst 33342 (5 µg/mL), which was used to stain the cells’ nuclei. After removing the excess dye, culture medium was added, and the cells were immediately observed using a Nikon Ti-S epifluorescence microscope. Cells were examined using a 40 × objective in random areas of 4 different wells under the same treatment condition. Images were analyzed using ImageJ software, and the intensity was measured according to integrated density values of red fluorescence.

CN(C)c1ccc2cc3ccc(N(C)C)cc3nc2c1 [Acridine orange, acridine orange]
concentration above which the relative cell population falls below 70% (WM983b cells; 24 or 48 h): > 20 µM
IC50 (WM983b cells; 24 h exposure, read-out: IC50 WM983b cells 24 h): 25.2 µM
IC50 (WM983b cells; 48 h exposure, read-out: IC50 WM983b cells 48 h): 6.6 µM
IC50 (MET1 cells [1]; 24 h exposure, read-out: IC50 MET1 Cells 24 h): 15.1 µM
IC50 (MET1 cells [1]; 48 h exposure, read-out: IC50 MET1 Cells 48 h): 10.3 µM
increase in fluorescence (DHE, integrated density) vs irradiated control (MET1 cells [2]; 457 nm irradiation 2.5 J/cm², vs irradiated control 0 µM): about 2.6 fold
increase in fluorescence intensity (DHE, integrated density) vs non-irradiated control (MET1 cells [2]; non-irradiated, vs non-irradiated control 0 µM): about 1.8 fold
